Reference: ChEMBL document CHEMBL1926587, “Molecular insights into human monoamine oxidase (MAO) inhibition by 1,4-naphthoquinone: evidences for menadione (vitamin K3) acting as a competitive and reversible inhibitor of MAO” (Bioorg Med Chem, 2011)
Calls of active or inactive are those of the source. No cut-off for these calls is given here.

Key:
[1] = target: T1, Amine oxidase [flavin-containing] B (Homo sapiens, UniProt P27338); assay: Competitive inhibition of human MAO-B
T1 sequence (P27338 whole entry): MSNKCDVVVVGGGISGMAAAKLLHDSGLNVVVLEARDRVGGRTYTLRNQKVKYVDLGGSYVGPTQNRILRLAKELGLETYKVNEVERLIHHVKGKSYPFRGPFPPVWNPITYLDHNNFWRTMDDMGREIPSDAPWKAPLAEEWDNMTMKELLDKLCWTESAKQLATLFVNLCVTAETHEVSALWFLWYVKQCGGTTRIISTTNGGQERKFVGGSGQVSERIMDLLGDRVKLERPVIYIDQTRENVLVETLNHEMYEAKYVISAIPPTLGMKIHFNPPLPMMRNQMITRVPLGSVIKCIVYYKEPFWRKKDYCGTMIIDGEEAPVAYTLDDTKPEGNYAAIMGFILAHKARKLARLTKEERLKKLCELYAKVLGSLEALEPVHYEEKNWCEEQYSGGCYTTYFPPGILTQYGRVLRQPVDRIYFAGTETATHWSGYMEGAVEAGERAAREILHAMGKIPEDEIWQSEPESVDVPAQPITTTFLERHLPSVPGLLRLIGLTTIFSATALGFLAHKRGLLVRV

[2] = target: T2, Amine oxidase [flavin-containing] A (Homo sapiens, UniProt P21397); assay: Competitive inhibition of human MAO-A
T2 sequence (P21397 whole entry): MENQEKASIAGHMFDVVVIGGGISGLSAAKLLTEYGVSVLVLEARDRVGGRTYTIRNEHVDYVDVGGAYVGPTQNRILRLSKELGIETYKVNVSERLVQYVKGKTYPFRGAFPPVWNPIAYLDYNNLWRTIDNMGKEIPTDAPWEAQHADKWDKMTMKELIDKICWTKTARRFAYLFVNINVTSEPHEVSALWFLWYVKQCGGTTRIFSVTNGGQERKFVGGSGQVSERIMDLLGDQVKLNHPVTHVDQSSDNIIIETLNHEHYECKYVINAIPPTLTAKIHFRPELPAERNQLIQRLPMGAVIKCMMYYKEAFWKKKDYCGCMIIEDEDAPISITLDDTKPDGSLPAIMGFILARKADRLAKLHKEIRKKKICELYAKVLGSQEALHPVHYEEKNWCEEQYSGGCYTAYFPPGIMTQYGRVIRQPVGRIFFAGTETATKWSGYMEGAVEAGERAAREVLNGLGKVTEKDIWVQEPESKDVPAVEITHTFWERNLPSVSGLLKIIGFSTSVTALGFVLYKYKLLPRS

[3] = organism: Homo sapiens; assay: Selectivity ratio of Ki for human recombinant MAO-A to Ki for human recombinant MAO-B
[4] = organism: Rattus norvegicus; assay: Selectivity ratio of Ki for rat MAO-A to Ki for rat MAO-B
[5] = target: T1, Amine oxidase [flavin-containing] B; assay: Competitive inhibition of human recombinant MAO-B expressed in baculovirus infected insect cells using benzylamine as substrate by Lineweaver-Burk plot analysis
[6] = target: T1, Amine oxidase [flavin-containing] B; assay: Reversible inhibition of human recombinant MAO-B expressed in baculovirus infected insect cells assessed as decrease in Km at 5 uM preincubated for 20 mins measured 3 hrs post dialysis by Lineweaver-Burk plot analysis
[7] = target: T2, Amine oxidase [flavin-containing] A; assay: Reversible inhibition of human recombinant MAO-A expressed in baculovirus infected insect cells assessed as decrease in Km at 5 uM preincubated for 20 mins measured 3 hrs post dialysis by Lineweaver-Burk plot analysis
[8] = target: T1, Amine oxidase [flavin-containing] B; assay: Competitive inhibition of human recombinant MAO-B expressed in baculovirus infected insect cells assessed as reduction in fluorescence at 10 to 12 uM by spectrofluorimetry relative to control; set-up: scale not given: the % may be the effect or the level left
[9] = target: T2, Amine oxidase [flavin-containing] A; assay: Competitive inhibition of human recombinant MAO-A expressed in baculovirus infected insect cells using p-tyramine as substrate by Lineweaver-Burk plot analysis
[10] = target: T2, Amine oxidase [flavin-containing] A; assay: Competitive inhibition of human recombinant MAO-A expressed in baculovirus infected insect cells assessed as increase in Km at 5 uM by Lineweaver-Burk plot analysis
[11] = target: T1, Amine oxidase [flavin-containing] B; assay: Competitive inhibition of human recombinant MAO-B expressed in baculovirus infected insect cells assessed as increase in Km at 5 uM by Lineweaver-Burk plot analysis
[12] = system: Armoracia rusticana; assay: Inhibition of horseradish peroxidase at 100 uM after 45 mins by amplex red assay in the presence of hydrogen peroxide
[13] = target: T2, Amine oxidase [flavin-containing] A; assay: Noncompetitive inhibition of human recombinant MAO-A expressed in baculovirus infected insect cells using p-tyramine as substrate by Lineweaver-Burk plot analysis
[14] = target: T2, Amine oxidase [flavin-containing] A; assay: Reversible inhibition of human recombinant MAO-A expressed in baculovirus infected insect cells assessed as increase in Vmax at 5 uM preincubated for 20 mins measured 3 hrs post dialysis by Lineweaver-Burk plot analysis
[15] = target: T1, Amine oxidase [flavin-containing] B; assay: Competitive inhibition of human recombinant MAO-B expressed in baculovirus infected insect cells assessed as reduction in fluorescence at 20 to 25 uM by spectrofluorimetry relative to control; set-up: scale not given: the % may be the effect or the level left
[16] = target: T2, Amine oxidase [flavin-containing] A; assay: Noncompetitive inhibition of human recombinant MAO-A expressed in baculovirus infected insect cells assessed as reduction in Vmax at 5 uM by Lineweaver-Burk plot analysis

Row | Compound | Ratio Ki [3] | Ratio Ki [4] | Ki [5] | inhibition (INH) [6] | inhibition (INH) [11] | inhibition [12] | also measured
1 | CC1=C(C)C(=O)c2cc(C)ccc2C1=O | – | – | – | – | – | – | Ki [1]: 3 µM; Ki [2]: 6 µM
2 | C#CCN(C)[C@H](C)Cc1ccccc1 | 250 | 250 | – | – | – | – | –
3 | C#CCN[C@@H]1CCc2ccccc21 | 50 | 93 | – | – | – | – | –
4 | CC1=CC(=O)c2ccccc2C1=O [MENADIONE] | 60 | – | 0.4 µM | Active | Active | inactive | inhibition (INH) [7]: Active; Activity [8]: 50%; Ki [9]: 26 µM; inhibition (INH) [10]: Active
5 | O=C1C=CC(=O)c2ccccc21 [NAPHTHOQUINONE] | – | – | 1.5 µM | Active | Active | inactive | Ki [13]: 7.7 µM; inhibition (INH) [14]: Active; Activity [15]: 50%; inhibition (INH) [16]: Active
